{
  "source": "patent US20260224470A1",
  "about": "“Composition For Improving The Aesthetic Appearance Of Hair And Skin Appendages” (priority 2023, published 2026)",
  "test_system": "glycogen-phosphorylase (PYGL) gene expression",
  "assay": "PYGL gene expression by qRT-PCR in Human Follicle Dermal Papilla Cells",
  "format": "cell-based",
  "settings": "6 μg/mL; serum-starved HFDPC, 24 h treatment; compared with positive control (starved cells), p<0.005",
  "experimental": "The PromoCell® Human Follicle Dermal Papilla Cells (HFDPC) cell line was used to test the inhibitory activity on PYGL of maslinic acid and a Swertia chirata extract (dry extract on maltodextrins) alone or as a combination.\nHFDPCs (DP; PromoCell GmbH, Heidelberg, Germany, batch 325Z017.1 and 322Z030.1) were grown in base culture medium (Follicle Dermal Papilla Cell Growth Medium) (PromoCell GmbH) supplemented with 4 μL/mL of bovine pituitary gland extract (Bovine Pituitary Extract), 0.04 mL/mL fetal serum, 1 ng/ml recombinant human fibroblast growth factor, 5 μg/mL recombinant human insulin (PromoCell). Cells were cultured with […] primocin (Invivogen, Toulouse, France, #ant-pm-2) in a humidified incubator with 5% CO2 at 37° C.\nPOSITIVE CONTROL: Cells treated in Follicle Dermal Papilla Cell Growth medium without serum (starved) under the same culture conditions.\nNEGATIVE CONTROL: Untreated cells in Follicle Dermal Papilla Cell Growth medium under the same culture conditions.\nPYGL gene expression was studied by RT-PCR.\nWhen cells (HFDPC) reached about 80% confluence, they were detached with trypsin/EDTA and seeded at a density of 1×10^6 cells/mL into 12-well plates and incubated at 37° C., 5% CO2 (24 h). […]",
  "data": [
    {"smiles": "CC1(C)CC[C@]2(C(=O)O)CC[C@]3(C)C(=CC[C@@H]4[C@@]5(C)C[C@@H](O)[C@H](O)C(C)(C)[C@@H]5CC[C@]43C)[C@@H]2C1", "note": "[maslinic acid, (2α,3β)-2,3-dihydroxyolean-12-en-28-oic acid]", "values": [
      {"measurement": "inhibition of PYGL gene expression", "value": "significantly inhibit (p<0.005)"}
    ]}
  ]
}
